In paper PMC12892976, “Alkylation-based optimization of antifungal FPPS inhibitors yields a potent, broad-spectrum lipophilic zoledronate derivative” (mBio, 2025):
In brackets after ≈: the same amount, converted by molar mass.

Key:
[1] = tested on: Saccharomyces cerevisiae; test: MIC/MFC broth microdilution (CLSI); format: cell-based; details: Saccharomyces cerevisiae S288c
Protocol: (§1) Antifungal susceptibility was determined by broth microdilution according to the CLSI guidelines described in M27-Ed4 ([16]). […] MFC was determined by back-plating drug-treated cultures from MIC broths onto SDA plates. The MFC was defined as the lowest concentration from which no colonies could be cultured.

[2] = tested on: Cryptococcus deuterogattii; test: checkerboard drug interaction (FICI, MICc); format: cell-based;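 note: simplified diagonal checkerboard screen pairing antifungal drugs with FPPS inhibitors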
Protocol: (§2) Drug interactions between antifungals and FPPS inhibitors were investigated using a simplified checkerboard diagonal screening method ([45]). […] FICIs were determined according to the Loewe additivity model ([17]).

[3] = tested on: Saccharomyces cerevisiae; test: checkerboard drug interaction (FICI, MICc); format: cell-based;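 note: simplified diagonal checkerboard screen pairing antifungals with FPPS inhibitors, FICI calculated under the Loewe additivity model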
Protocol: as §2

[4] = tested on: Cryptococcus neoformans; test: MIC/MFC broth microdilution (CLSI);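 note: susceptibility testing followed the CLSI M27-Ed4 broth microdilution document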
Protocol: as §1

[5] = tested on: Trichophyton rubrum; test: MIC/MFC broth microdilution (CLSI)
Protocol: as §1

[6] = tested on: Candida albicans; test: checkerboard drug interaction (FICI, MICc); format: cell-based;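 note: antifungal plus FPPS inhibitor combinations on Candida albicans tested by a simplified diagonal checkerboard screen, with FICI calculated under the Loewe additivity model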
Protocol: as §2

[7] = tested on: Aspergillus fumigatus; test: checkerboard drug interaction (FICI, MICc); format: cell-based;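 note: simplified diagonal checkerboard screen pairing antifungals with FPPS inhibitors against Aspergillus fumigatus, with FICI calculated under the Loewe additivity model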
Protocol: as §2

[8] = tested on: Cryptococcus deuterogattii; test: MIC/MFC broth microdilution (CLSI);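 note: broth microdilution per CLSI M27-Ed4. MFC is the lowest concentration yielding no colonies when MIC broths are subcultured onto SDA plates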
Protocol: as §1

[9] = tested on: Cryptococcus neoformans; test: checkerboard drug interaction (FICI, MICc); format: cell-based;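 note: antifungal plus FPPS inhibitor pairs tested against Cryptococcus neoformans by simplified diagonal checkerboard screening, FICI computed under the Loewe additivity model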
Protocol: as §2

[10] = tested on: Candida albicans; test: MIC/MFC broth microdilution (CLSI); format: cell-based; details: Candida albicans SC5314
Protocol: as §1

[11] = tested on: Trichophyton rubrum; test: checkerboard drug interaction (FICI, MICc); format: cell-based;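 note: simplified diagonal checkerboard screen pairing azole antifungals with FPPS inhibitors, FICI calculated under the Loewe additivity model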
Protocol: as §2

[12] = tested on: Aspergillus flavus; test: checkerboard drug interaction (FICI, MICc); format: cell-based;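 note: simplified diagonal checkerboard screen pairing azole antifungals with FPPS inhibitors, FICI calculated under the Loewe additivity model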
Protocol: as §2

[13] = tested on: Aspergillus flavus; test: MIC/MFC broth microdilution (CLSI); details: ATCC204304
Protocol: as §1

[14] = tested on: Candida glabrata; test: MIC/MFC broth microdilution (CLSI);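 note: broth microdilution following CLSI M27-Ed4, MFC taken as the lowest drug level yielding no growth once MIC wells were subcultured on SDA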
Protocol: as §1

[15] = tested on: Candida glabrata; test: checkerboard drug interaction (FICI, MICc); format: cell-based;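 note: simplified diagonal checkerboard screen pairing antifungals with FPPS inhibitors, FICI calculated under the Loewe additivity model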
Protocol: as §2

[16] = tested on: Fusarium oxysporum; test: checkerboard drug interaction (FICI, MICc); format: cell-based; details: in combination with ZOL
Protocol: as §2

Structure (SMILES): OC(Cn1cncn1)(Cn1cncn1)c1ccc(F)cc1F [FLC, fluconazole]
- MFC [1]: 64 µg/mL (≈ 209 µM)
- MIC [1]: 4 µg/mL (≈ 13.1 µM)
- MIC / MEC [1]: 4 µg/mL (≈ 13.1 µM)
- antifungal MICc ([2]; in combination with 10-ZOL): 2
- antifungal MICc ([2]; in combination with ZOL): 4
- antifungal MICc ([3]; in combination with 10-ZOL): 1
- antifungal MICc ([3]; in combination with ZOL): 1
- MIC ([4]; Cryptococcus neoformans): 2 µg/mL (≈ 6.53 µM)
- MIC / MEC ([4]; Cryptococcus neoformans H99): 4 µg/mL (≈ 13.1 µM)
- MIC ([5]; Trichophyton rubrum): 64 µg/mL (≈ 209 µM)
- MIC / MEC ([5]; Trichophyton rubrum R-218): 64 µg/mL (≈ 209 µM)
- antifungal MICc ([6]; in combination with 10-ZOL): 1
- antifungal MICc ([6]; in combination with ZOL): 2
- effective concentration in combination ([7]; FLC with 10-ZOL added, A. fumigatus): 8 µg/mL
- antifungal MICc ([7]; in combination with 10-ZOL): 8
- antifungal MICc ([7]; in combination with ZOL): 64
- MIC ([8]; Cryptococcus deuterogattii): 2 µg/mL (≈ 6.53 µM)
- MIC / MEC ([8]; Cryptococcus deuterogattii R265): 4 µg/mL (≈ 13.1 µM)
- antifungal MICc ([9]; in combination with 10-ZOL): 2
- antifungal MICc ([9]; in combination with ZOL): 4
- MFC [10]: 4 µg/mL (≈ 13.1 µM)
- MIC [10]: 0.5 µg/mL (≈ 1.63 µM)
- MIC / MEC [10]: 0.5 µg/mL (≈ 1.63 µM)
- antifungal MICc ([11]; in combination with 10-ZOL): 8
- antifungal MICc ([11]; in combination with ZOL): 16
- antifungal MICc ([12]; in combination with 10-ZOL): 32
- antifungal MICc ([12]; in combination with ZOL): 64
- MIC [13]: 64 µg/mL (≈ 209 µM)
- MIC / MEC ([14]; Candida glabrata CBS138 (ATCC 2001)): 4 µg/mL (≈ 13.1 µM)
- MIC ([14]; Nakaseomyces glabratus, CBS138): 4 µg/mL (≈ 13.1 µM)
- antifungal MICc ([15]; in combination with 10-ZOL): 1
- antifungal MICc ([15]; in combination with ZOL): 0.25
- antifungal MICc [16]: 64
